Data from ChEMBL document CHEMBL1765000, “Synthesis and biological evaluation of 1-substituted-3(5)-(6-methylpyridin-2-yl)-4-(quinolin-6-yl)pyrazoles as transforming growth factor-β type 1 receptor kinase inhibitors” (Bioorg Med Chem, 2011).

Key:
TGF-beta receptor type-1 = target: T1, TGF-beta receptor type-1 (Homo sapiens, UniProt P36897); test: Inhibition of human recombinant GST-fused ALK5 expressed in Sf9 cells
T1 sequence (P36897 whole entry): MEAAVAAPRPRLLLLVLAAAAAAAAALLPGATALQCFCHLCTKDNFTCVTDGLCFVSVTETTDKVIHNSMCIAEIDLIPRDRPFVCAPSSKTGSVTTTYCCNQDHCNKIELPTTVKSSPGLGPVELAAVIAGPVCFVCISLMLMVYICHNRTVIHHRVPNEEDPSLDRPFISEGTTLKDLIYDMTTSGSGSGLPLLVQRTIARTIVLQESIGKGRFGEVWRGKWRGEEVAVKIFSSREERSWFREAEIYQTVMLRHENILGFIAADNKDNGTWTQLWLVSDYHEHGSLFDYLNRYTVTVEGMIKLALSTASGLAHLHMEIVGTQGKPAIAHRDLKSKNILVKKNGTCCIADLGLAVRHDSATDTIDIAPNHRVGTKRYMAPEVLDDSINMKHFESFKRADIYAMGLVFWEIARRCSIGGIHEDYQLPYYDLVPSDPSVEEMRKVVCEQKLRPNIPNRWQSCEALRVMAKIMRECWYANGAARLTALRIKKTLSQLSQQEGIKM

[1] = target: Mitogen-activated protein kinase 14 (Homo sapiens, UniProt Q16539); test: Inhibition of human recombinant p38alpha expressed in Escherichia coli using ATF2 as a substrate by radioisotopic protein kinase assay
Mitogen-activated protein kinase 14, sequence (Q16539 whole entry): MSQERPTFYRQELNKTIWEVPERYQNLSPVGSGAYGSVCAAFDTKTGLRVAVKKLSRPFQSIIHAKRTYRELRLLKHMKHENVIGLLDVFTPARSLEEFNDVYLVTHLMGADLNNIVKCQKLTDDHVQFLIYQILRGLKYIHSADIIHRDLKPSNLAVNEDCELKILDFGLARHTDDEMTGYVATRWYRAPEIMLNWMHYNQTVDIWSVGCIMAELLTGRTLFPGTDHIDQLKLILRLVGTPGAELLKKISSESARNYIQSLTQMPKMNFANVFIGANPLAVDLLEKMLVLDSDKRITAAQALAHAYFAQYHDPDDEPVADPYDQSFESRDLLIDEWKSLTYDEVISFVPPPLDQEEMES

[2] = target: T2, TGF-beta receptor type-1 (Homo sapiens) (UniProt P36897); test: Inhibition of human recombinant ALK5 activity in human HaCaT cells assessed as inhibition of TGFbeta-induced p3TP-luciferase reporter activity; type: cell-based
T2 sequence (whole entry): T1 sequence (P36897 whole entry)

Row | Structure (SMILES) | IC50 (TGF-beta receptor type-1) | IC50 [1] | inhibition [2]
1 | Cc1cccc(-c2nn(CC(=O)Nc3ccccc3)cc2-c2ccc3ncccc3c2)n1 | 207 nM | > 1000 nM | –
2 | COc1ccnc2ccc(-c3cn(CC(=O)Nc4ccccc4)nc3-c3cccc(C)n3)cc12 | > 1000 nM | > 1000 nM | –
3 | Cc1cccc(-c2c(-c3ccc4ncccc4c3)cnn2CC(=O)Nc2cccc(C(N)=O)c2)n1 | > 1000 nM | > 1000 nM | –
4 | Cc1cccc(-c2c(-c3ccc4ncccc4c3)cnn2CC(=O)Nc2cccc(C#N)c2)n1 | > 1000 nM | > 1000 nM | –
5 | Cc1cccc(-c2nn(CCC(=O)Nc3cccc(C#N)c3)cc2-c2ccc3ncccc3c2)n1 | 101 nM | > 1000 nM | –
6 | Cc1cccc(-c2c(-c3ccc4ncccc4c3)cnn2CC(=O)Nc2ccccc2)n1 | > 1000 nM | > 1000 nM | –
7 | Cc1cccc(-c2nn(CCC(=S)Nc3cccc(C#N)c3)cc2-c2ccc3ncccc3c2)n1 | 232 nM | 630 nM | –
8 | COc1ccnc2ccc(-c3cn(CCC(=O)Nc4cccc(C#N)c4)nc3-c3cccc(C)n3)cc12 | > 1000 nM | > 1000 nM | –
9 | COc1ccnc2ccc(-c3cnn(CC(=O)Nc4cccc(C#N)c4)c3-c3cccc(C)n3)cc12 | > 1000 nM | > 1000 nM | –
10 | COc1ccnc2ccc(-c3cnn(CC(=O)Nc4ccccc4)c3-c3cccc(C)n3)cc12 | > 1000 nM | > 1000 nM | –
11 | COc1ccnc2ccc(-c3cn(CC(=O)Nc4cccc(C#N)c4)nc3-c3cccc(C)n3)cc12 | > 1000 nM | > 1000 nM | –

These reach a lower IC50 (TGF-beta receptor type-1). Values come first.

Row | IC50 (TGF-beta receptor type-1) | IC50 [1] | inhibition [2] | Structure (SMILES)
12 | 75 nM | > 1000 nM | – | Cc1cccc(-c2nn(CC(=O)Nc3cccc(C(N)=O)c3)cc2-c2ccc3ncccc3c2)n1
13 | 51 nM | > 1000 nM | – | Cc1cccc(-c2nn(CC(=S)Nc3cccc(C#N)c3)cc2-c2ccc3ncccc3c2)n1
14 | 25 nM | > 1000 nM | – | Cc1cccc(-c2nn(CCC(=O)Nc3ccccc3)cc2-c2ccc3ncccc3c2)n1
15 | 94 nM | > 1000 nM | – | Cc1cccc(-c2nn(CC(=S)Nc3ccccc3)cc2-c2ccc3ncccc3c2)n1
16 | 22 nM | > 1000 nM | Dose-dependent effect | Cc1cccc(-c2nn(CC(=O)Nc3cccc(C#N)c3)cc2-c2ccc3ncccc3c2)n1
17 | 17 nM | 480 nM | – | Cc1cccc(-c2[nH]c(Cc3cccc(C(N)=O)c3)nc2-c2ccc3nccnc3c2)n1
18 | 88 nM | > 1000 nM | – | Cc1cccc(-c2nn(CCC(=S)Nc3ccccc3)cc2-c2ccc3ncccc3c2)n1
